This is an account of results in patent EP4772500A1, “NOVEL ISOXAZOLE COMPOUND AS TM4SF5-SPECIFIC INHIBITOR AND USE THEREOF” (Seoul National University R&DB Foundation, priority 2023, dated 2025).

This assay deals with TM4SF5-non-expressing cells (SNU449Cp). The experiment in a line: Western blotting for signaling factor phosphorylation in TM4SF5-non-expressing cells. It counts as cell-based, human. The protocol:
Cell extracts were obtained from cells grown to a density of 70-80% without any treatment, or from cells treated with vehicle DMSO or drugs at the given concentrations for 24 hours. For the extract of hepatocytes or liver cancer cells, a lysis buffer (150 mM NaCl, 1% NP-40, 50 mM Tris-HCl, 0.25% sodium deoxycholate, pH 7.4) including a protease inhibitor cocktail (GenDEPOT) was used. In addition, after washing animal liver tissue twice with PBS, SDS, Na3VO4, and protease inhibitor cocktails (GenDEPOT) were added to a lysis buffer [50 mM Tris-HCl, pH 7.4, 1% NP40, 0.25% sodium deoxycholate, 150 mM NaCl, 1 mM EDTA (based on 500 ml)], followed by treatment at 4°C for 15 minutes. After centrifugation at 13,000 rpm at 4°C for 30 minutes, only the supernatant was transferred to a new microcentrifuge tube. After quantification using BCA reagent (Thermo Scientific), a 4 × sample buffer [100% glycerol 4 ml, Tris-HCl, pH 6.8, 2.4 ml, SDS 0.8 g, Bromophenol blue 4 mg, betamercaptoethanol 0.4 ml, H2O 3.1 ml (based on 10 ml)] was added, followed by boiling at 100°C for 5 minutes. After performing SDS-PAGE electrophoresis with the above samples and transferring them to Nitrocellulose Membranes Protran™ nitrocellulose membranes (Whatman), pre-treatment was performed with 5% skim milk for 1 hour. After pre-treatment, primary antibodies of p-FAK(Y861) (SC-16663), p-FAK(Y577) (SC-16665), c-Src (SC-8056), STAT3 (SC-8019), p-AKT 1/2/3(S473) (SC-7985), STATS (SC-835), Laminin γ2 (SC-393225), COL1A1 (SC-28657), CCL5(RANTES) (SC-514019) CCL20(MIP-3α) (SC-517441), SIRT1 (SC-74465), ChREBP (SC-515922), SREBP1 (SC-366513), DGAT1 (SC-271934), DGAT2 (SC-293211), MICA/B (SC-137242), SLAMF7 (SC-390840), α-tublin (SC-5286), β-actin (SC-47778), FUCA (SC-365496) (the above from Santa Cruz Biotech, USA), p-FAK(Y397) (cat # 611723), FAK (cat # 610088), p27 (cat # 610242) (the above from BD Transduction, USA), p-FAK(Y925) (#3284) p-c-Src(Y416) (#2101), p-STAT3(Y705) (#9145), p70S6K1 (#9202), p-p70S6K1(T389) (#9205), p-STAT5(Y694) (#9314), ACC (#3676), FASN (#3189), CPT1A (#12252), p-ACC(S79) (#11818), HA (#3724), PD-L1 (#13684), PD-1 (#86163), p-ERK1/2(T202/Y204) (#9101s), ERK1/2 (#9102s) (the above from Cell Signaling Tech., USA), pS10p27(S10) (ab62364), human SLAMF6 (ab224201), TIGIT (ab233404), CD34 (ab81289) (the above from Abcam, UK), mouse SLAMF6 (PA5-87823), NKG2D (PA5-102038) (the above from Thermofisher, USA), α-SMA (Sigma Aldrich, A5228), CCL2 (Invitrogen, MA5-17040), and CD155(PVR) (Biolegend, 337601), HA (Biolegend, USA), Strep-HRP(horse-radish peroxidase), StrepMAB-HRP (IBA, USA), AFP (FineTest, FNab00203) were reacted at 4°C for 15 hours. The next day, secondary antibodies were reacted, and development was performed on X-ray film using ECL (Pierce, USA). Anti-TM4SF5C-ter (epitope region of RKKQDTPH^197) and anti-TM4SF5EC2 (CLMNGEWGYHFEDTAGA^130) were custom-made at a professional antibody production company (Pro-Sci, Poway, CA, USA).
(a) Cell extracts were obtained after treating TM4SF5-non-expressing cells (SNU449Cp) and TM4SF5-expressing cells (SNU449T7) with vehicle (DMSO), ST-2-001, or an ST-2-001-based derivative drug at a concentration of 5 µM for 24 hours. (b) Cell extracts were obtained after treating SNU449Cp and SNU449T7 with DMSO, ST-2-001, ST-3-001, ST-3-006, ST-3-007, ST-3-010, or ST-3-011 at a concentration of 5 µM for 24 hours. (c) Cell extracts were obtained after treating SNU449Cp and SNU449T7 with DMSO, ST-2-001, ST-3-006, or ST-3-011 at the given concentrations for 24 hours. (a-c) Using the cell extracts obtained after the drug treatment, Western blotting was performed for signaling factors whose phosphorylation and activity increase in a TM4SF5-expression dependent manner.

The mark [1] stands for this setting: 5 µM, 24 hours (FIG. 9a-b, blue-lined boxes).
The mark [2] stands for this setting: given concentrations, 24 hours (FIG. 9c).

`COc1ccc(-c2cc(-c3cccc(NC(C)=O)c3)no2)cc1` [ST-3-011, N-(3-(5-(4-methoxyphenyl)isoxazole-3-yl)phenyl)acetamide]: the “phosphorylation of some signaling factors” value (“phosphorylation” below) is on record as “increased” under setting [1] and “increased” under setting [2].

Consider `COc1ccc(-c2cc(-c3ccc(NC(C)=O)cc3)no2)cc1` [ST-2-001, N-(4-(5-(4-methoxyphenyl)isoxazole-3-yl)phenyl)acetamide], for which, under setting [2], the “phosphorylation” value is listed as “increased”.

As for `CC(=O)Nc1ccc(-c2cc(-c3ccc(F)cc3)on2)cc1` [ST-3-006, N-(4-(5-(4-fluorophenyl)isoxazole-3-yl)phenyl)acetamide], the “phosphorylation” value by setting is: under setting [1], “increased”; under setting [2], “increased”.
